{"source": "patent US20150290234A1", "about": "“TARGETED INTRACELLULAR DELIVERY OF ANTIVIRAL AGENTS” (BBB Holding B.V., priority 2007, published 2015)", "molecules": {"B1": {"name": "diphtheria toxin receptor (DTR) expressed on LLC-PK1 cells (porcine kidney epithelial cells) (receptor, UniProt Q01580 63-148, looked up)", "chain": "DLEEADLDLLRADFSSKPQALATPSKEERGKRKKKGKGLGKKRDPCLRKYKDFCIHGECKYVKELRAPSCICHPGYHGERCHGLSL", "notes": "whole, on cells; also called HB-EGF"}, "B2": {"name": "diphtheria toxin receptor (DTR) on bovine brain capillary endothelial cells (BCEC) (receptor)", "chain": "B1 chain with D6N, L10F, D13A, D44N, K49R, A67V, S69T", "notes": "whole, on cells; also called HB-EGF precursor"}, "B3": {"name": "diphtheria toxin receptor (DTR) on human glioblastoma cells (receptor, UniProt Q99075 63-148, looked up)", "chain": "B1 chain with E3Q, A12V, D13T, F14L, S25N, R29H", "notes": "as for B2"}}, "key": {"viral DNA polymerase": {"system": "viral DNA polymerase", "conditions": "cited from earlier work"}, "CMV-infected cells": {"system": "CMV-infected cells", "conditions": "cited from earlier work"}, "[1]": {"conditions": "cited from earlier work"}, "[2]": {"conditions": "cited from earlier work", "remark": "listed apart in the source"}, "LLC-PK1 cells [3]": {"system": "LLC-PK1 cells", "assay": "MTT-assay", "conditions": "10 mg/mL RBV, after 5 h, found to be toxic"}, "YFV": {"system": "YFV", "assay": "microbe, parasite or virus in culture", "type": "cell-based", "conditions": "Yellow fever virus, Vero, 120 h, read-out: EC50 for inhibition of RNA synthesis [EC50 RNA]"}, "influenza": {"system": "influenza", "conditions": "therapy started within 48 hours of the onset of symptoms; cited from earlier work"}, "LLC-PK1 cells [4]": {"system": "LLC-PK1 cells", "assay": "Cell uptake and localization on coverslips, fluorescence microscope", "type": "cell-based, porcine", "conditions": "FIG. 1", "method": "(§1) Cells with a known expression of the DTR were used from several species and origins, including porcine kidney epithelial cells (LLC-PK1), bovine brain capillary endothelial cells (BCEC), monkey kidney fibroblast cells (COS-1), and human glioblastoma cells. In particular, LLC-PK1 cells were incubated for 1 h in 24-wells plates on 400 microliter DMEM+FCS supplemented with 100 microgram/ml heparin, before 5 microgram CRM197-FITC or HRP-FITC was added to the well. Two hours later the cells were washed 3 times and the cells were lysated in 100 microliter 0.1 N NaOH, and fluorescence was determined at 480/530 nm in a fluostar plate reader. Cell protein per well was determined with a Biorad DC assay and fluorescence in the cell lysate was calculated per mg cell protein. In a separate group of cells, an access of 100 microgram free CRM197 was added to the well, 30 minutes before the CRM197-FITC conjugate was added to the medium. […] In a separate set of experiments, LLC-PK1 cells were cultured in similar conditions on coverslips and exposed to CRM197-FITC, HRP-FITC or sodium fluorescein. After fixation and mounting with vectashield with DAPI for nuclear staining, the coverslips were analyzed on a fluorescence microscope and photographed. […] Identical results were found on BCEC, COS-1 and human glioblastoma cells, also after several time points (up to 24 hours after exposure)."}, "[5]": {"assay": "Pharmacokinetics of sodium fluorescein after intravenous bolus", "conditions": "rats, 1 mg intravenous bolus"}, "[6]": {"target": "diphtheria toxin receptor (DTR) expressed on LLC-PK1 cells (porcine kidney epithelial cells) (porcine) (UniProt Q01580)", "assay": "cell-based or functional assay"}, "[7]": {"assay": "Biodistribution of FITC conjugates", "conditions": "hamster, 90 minutes after i.v. injection, FIG. 4"}, "[8]": {"target": "T1, DTR expressed on LLC-PK1 cells (Sus scrofa, UniProt Q01580)", "T1 construct": "Cells with a known expression of the DTR were used from several species and origins; endogenous in cells; host or cells: LLC-PK1 (porcine kidney epithelial cells)", "assay": "Receptor-specific cell uptake, fluorescence in cell lysate", "type": "cell-based, porcine", "conditions": "LLC-PK1, 5 microgram per well, 2 hours", "method": "as §1"}, "[9]": {"assay": "Plasma pharmacokinetics of FITC-labelled protein after intravenous bolus", "conditions": "hamster, i.v. 1 mg FITC-labelled protein, calculated sixty minutes after injection"}, "[10]": {"target": "T2, HRP-FITC (horseradish peroxidase labelled with FITC) (UniProt P00433 31-338)", "T2 construct": "also called HRP-FITC conjugate", "T2 sequence (looked up)": "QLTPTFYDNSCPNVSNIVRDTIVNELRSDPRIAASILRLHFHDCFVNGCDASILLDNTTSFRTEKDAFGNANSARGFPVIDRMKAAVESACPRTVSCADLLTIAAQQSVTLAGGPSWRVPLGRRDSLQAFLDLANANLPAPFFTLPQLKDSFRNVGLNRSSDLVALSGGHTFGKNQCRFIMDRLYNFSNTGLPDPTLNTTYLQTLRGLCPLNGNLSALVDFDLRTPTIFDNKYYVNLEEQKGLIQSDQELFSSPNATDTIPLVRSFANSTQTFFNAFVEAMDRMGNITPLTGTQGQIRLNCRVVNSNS", "assay": "uptake by LLC-PK1 cells for 2 h, fluorescence of the cell lysate; fluorescence microscopy also showed no signal"}, "HRP-PEG-liposomes": {"target": "T3, HRP-PEG-liposomes (UniProt P00433 31-338)", "T3 sequence (looked up)": "T2 sequence (looked up)", "assay": "fluorescence microscopy of LLC-PK1 cells after 4 hours incubation"}, "[11]": {"target": "T2, HRP-FITC (horseradish peroxidase …)", "assay": "fluorescence microscopy of cells on coverslips"}, "[12]": {"conditions": "500 mg of probenecid every six hours"}}, "note": "Residue numbers refer to the chain shown, from its start. Like-named read-outs stand apart in the source and are kept apart here.", "data": [{"molecule": "Nc1nc2c(ncn2COCCOP(=O)(O)OP(=O)(O)OP(=O)(O)O)c(=O)[nH]1", "note": "[Aciclo-GTP]", "values": [{"measurement": "affinity to viral relative to cellular polymerase", "setting": "viral DNA polymerase", "result": "approximately 100 times"}, {"measurement": "half-life compared to GCV-TP in infected cells", "setting": "CMV-infected cells", "result": "four- to five-fold shorter"}]}, {"molecule": "Nc1nc2c(ncn2COCCO)c(=O)[nH]1", "note": "[Aciclovir]", "values": [{"measurement": "protein binding in plasma", "setting": "[1]; in vivo", "result": 30, "unit": "%"}, {"measurement": "oral bioavailability", "setting": "[1]", "result": "10-20%"}, {"measurement": "time of peak plasma concentration", "setting": "[1]; orally administered", "result": "1 to 2", "unit": "h"}, {"measurement": "water solubility", "setting": "[2]", "result": "poorly water soluble"}]}, {"molecule": "CCOC(=O)C1=C[C@@H](OC(CC)CC)[C@H](NC(C)=O)[C@@H](N)C1", "note": "[Oseltamivir, (3R,4R,5S)-4-acetylamino-5-amino-3-(1-ethylpropoxy)-1-cyclohexene-1-carboxylic acid ethyl ester]", "values": [{"measurement": "change of half-life with probenecid", "setting": "[1]; [12]", "result": "doubled"}, {"measurement": "change of peak plasma concentration (Cmax) with probenecid", "setting": "[1]; [12]", "result": "doubled"}, {"measurement": "increase of overall systemic exposure (AUC) with probenecid", "setting": "[1]; [12]", "result": 2.5, "unit": "fold"}, {"measurement": "(elimination) half-life", "setting": "[1]; in vivo", "result": "6 to 10", "unit": "h"}, {"measurement": "oral bioavailability", "setting": "[1]", "result": 75, "unit": "%"}]}, {"molecule": "NC(=O)c1ncn([C@@H]2O[C@H](CO)[C@@H](O)[C@H]2O)n1", "note": "[RBV, 1-beta-D-ribofuranosyl-1,2,4-triazole-3-carboxamide]", "values": [{"measurement": "absorption from the GI tract with a fatty meal", "setting": "[1]; fatty meal", "result": "about 75%"}, {"measurement": "absorption from the GI tract", "setting": "[1]; in vivo", "result": "about 45%"}, {"measurement": "fraction of absorbed drug excreted into the urine unchanged", "setting": "[1]; in vivo", "result": "About a third"}, {"measurement": "mean half-life for multiple doses in the body", "setting": "[1]; multiple doses", "result": "about 12 days"}, {"measurement": "half-life after single dose", "setting": "[1]; single dose", "result": 30, "unit": "min"}, {"measurement": "cell viability", "setting": "LLC-PK1 cells [3]", "result": 60, "unit": "%"}, {"measurement": "EC50", "setting": "YFV", "result": "12.3 ± 5.6", "unit": "µg/mL"}]}, {"molecule": "CC(=O)NC1C(NC(=N)N)C=C(C(=O)O)OC1C(O)C(O)CO", "note": "(centres unmarked) [Zanamivir, 5-acetamido-4-guanidino-6-(1,2,3-trihydroxypropyl)-5,6-dihydro-4H-pyran-2-carboxylic acid]", "values": [{"measurement": "(elimination) half-life", "setting": "[1]; in vivo", "result": "2.5 to 5.1", "unit": "h"}, {"measurement": "protein binding in plasma", "setting": "[1]; in vivo", "result": "< 10", "unit": "%"}, {"measurement": "oral bioavailability", "setting": "[1]", "result": 2, "unit": "%"}, {"measurement": "reduction of time to symptom resolution", "setting": "influenza", "result": 1.5, "unit": "days"}]}, {"molecule": "Nc1nc(O)c2ncn(COC(CO)CO)c2n1", "note": "[ganciclovir]", "values": [{"measurement": "half-life", "setting": "[1]; depending on renal function", "result": "2 to 6", "unit": "h"}, {"measurement": "elimination time in end-stage renal disease", "setting": "[1]; end-stage renal disease", "result": "over 24 hours"}, {"measurement": "absorption of the oral form, fasting", "setting": "[1]; fasting", "result": "about 5%"}, {"measurement": "concentration in the central nervous system relative to plasma level", "setting": "[1]; in vivo", "result": "about 50 % of the plasma level"}, {"measurement": "plasma drug eliminated unchanged in the urine", "setting": "[1]; in vivo", "result": "About 90%"}, {"measurement": "oral bioavailability", "setting": "[1]", "result": "approximately 5%"}, {"measurement": "absorption of the oral form, with food", "setting": "[1]; with food", "result": "about 8%"}]}, {"molecule": "O=C([O-])c1ccccc1-c1c2ccc(=O)cc-2oc2cc([O-])ccc12.[Na+].[Na+]", "note": "[sodium fluorescein]", "values": [{"measurement": "fluorescence signal / uptake in cells", "setting": "LLC-PK1 cells [4]", "result": "No fluorescence signal was found"}, {"measurement": "AUC", "setting": "[5]", "result": 13, "unit": "microgram*min/ml"}, {"measurement": "half-life", "setting": "[5]", "result": 35, "unit": "min"}]}, {"molecule": "CRM197-FITC conjugate (from UniProt P00588 33-567) (ligand)", "values": [{"measurement": "cell uptake: CRM197-FITC in the cell lysate per mg cell protein after 2 hours (microgram per mg cell protein)", "setting": "[6]", "result": 0.54}]}, {"molecule": "HRP-FITC: horseradish peroxidase (HRP) labelled with FITC as a control protein", "values": [{"measurement": "fluorescence signal / uptake in cells", "setting": "LLC-PK1 cells [4]", "result": "No fluorescence signal was found"}, {"measurement": "accumulation in tissues (brain, heart, lung, liver, spleen, kidney)", "setting": "[7]", "result": "not (or hardly) detectable in these tissues"}, {"measurement": "conjugate found in the cell lysates", "setting": "[8]", "result": "No HRP-FITC was found"}, {"measurement": "plasma half-life", "setting": "[9]", "result": 38, "unit": "min"}]}, {"molecule": "B1", "values": [{"measurement": "binding result", "setting": "[10]", "result": "no binding"}, {"measurement": "binding result", "setting": "HRP-PEG-liposomes", "result": "no binding"}]}, {"molecule": "B2", "values": [{"measurement": "binding result", "setting": "[11]", "result": "no binding"}]}, {"molecule": "B3", "values": [{"measurement": "binding result", "setting": "[11]", "result": "no binding"}]}]}
